According to US20230048888A1, “USE OF TRIAZOLOTRIAZINE DERIVATIVE IN TREATMENT OF DISEASES” (ZHEJIANG VIMGREEN PHARMACEUTICALS, LTD., priority 2019, published 2023):

Experiments:
B16F10 tumor cells = assay: B16F10 murine melanoma model; format: in vivo; conditions: for Tumor inhibition rate (%): Day 18
Experimental: The B16F10 murine melanoma model is a classic melanoma pharmaceutical effect evaluation model, which is made by subcutaneously inoculating the same B16F10 tumor cells into female C57BL/6 mice. The test compounds were administrated to evaluate their inhibitory effects on tumor growth in the model.
B16F10 tumor cells were cultured in a DMEM medium containing inactivated 10% fetal bovine serum, 100 U/ml penicillin, 100 μg/ml streptomycin and 2 mM glutamine in an incubator at 37° C. in the presence of 5% CO2; and after the cells grew all over, the tumor cells were divided and passaged in respective flasks every 3 to 4 days. The tumor cells in the logarithmic growth phase were used for in vivo inoculation of tumors.
The B16F10 tumor cells resuspended in a serum-free DMEM culture solution were inoculated subcutaneously at 1×10^5/100 μl to the right ribs of experimental animals. In the second group, when the tumor grew to 75 mm^3, 12 animals with a uniform tumor volume were selected and administered according to the experimental design.
The first day of tumor inoculation was D0, the first, third, and fourth groups were dosed on the second day of tumor inoculation, and the second group was dosed when the tumor volume reached 75 mm^3.
Tumor volume: the tumor volume was measured 3 times a week with a vernier caliper, and the long and short diameters of the tumor were measured. The volume was calculated with a formula as follows:
volume=0.5×long diameter×short diameter^2.
Tumor growth inhibition rate (TGI, %)=(1-T/C)×100.
T/C(%)=(average tumor volume of treatment groups on the current day-average tumor volume of treatment groups on the initial day D0)/(average tumor volume of the control group on the current day-average tumor volume of the control group on the initial day D0)×100.

[1] = Pharmacokinetics of Compound 40 and benzene sulfonate thereof in ICR mice, PO; conditions: mouse, in vivo, PO 100 mg/kg (based on free base), 40% Hp-β-CD

Row | AUC(0-t) [1] [ng·h/mL] | Cmax [1] [ng/mL] | Tmax [1] [h] | AUC(0-inf) ([1]; read-out: AUCINF—pred) [ng·h/mL] | half-life ([1]; read-out: T½ (converted)) [h] | SMILES | Tumor inhibition rate (%) (B16F10 tumor cells; 50 mg/kg p.o. QD) | Tumor inhibition rate (%) (B16F10 tumor cells; 50 mg/kg p.o. QD + Anti PD-1 10 mg/kg i.p. 2/WK) | Animal death / changes in body weight (B16F10 tumor cells; alone or combined with anti PD-1)
1 |  |  |  |  |  | Nc1nc(NCCc2ccc(NC3COC3)cc2)nc2nc(-c3ccco3)nn12 [Compound 22, 2-(furan-2-yl)-N5-(4-(oxetan-3-ylamino)phenethyl)-[1,2,4]triazolo[1,5-a][1,3,5]triazine-5,7-diamine] | 22.1 | 48.1 | No animal death or significant changes in body weight
2 | 11900 | 2900 | 0.5 | 12100 | 4.27 | Cn1nnc(-c2ccc(CCNc3nc(N)n4nc(-c5ccco5)nc4n3)cc2)n1 [Compound 40, N5-(4-(2-methyl-2H-tetrazol-5-yl)phenethyl)-2-(furan-2-yl)-[1,2,4]triazolo[1,5-a][1,3,5]triazine-5,7-diamine] |  |  | 
